Experimental data from patent US20020161013A1, “Method of local anesthesia and analgesia” (priority 2001, published 2002).
Structures can show the parent of a compound that is named as a salt. Where two headings read alike, the source gives them in different places.

Assays:
rabbit eyes [1] = system: rabbit eyes; parameters: species or system New Zealand white rabbits; settings: in vivo
rabbits [2] = system: rabbits; parameters: species or system New Zealand white rabbits; settings: rabbit, in vivo
rabbits [3] = system: rabbits; parameters: species or system New Zealand white rabbits; settings: rabbit, in vivo; remark: listed apart in the source
[4] = cited from earlier work
rabbit eyes [5] = settings: in vivo

SMILES: NC1=N[C@H](O)[C@H]2[C@H]3O[C@]4(O)O[C@@H]([C@@H](O)[C@@]2(N1)[C@@H]4O)[C@]3(O)CO [TTX, tetrodotoxin]
- local anesthesia by retrobulbar injection compared with lidocaine (rabbit eyes [1]): much more potent
- local anesthesia effect (rabbit eyes [1]): weak effect
- local anesthesia in the treated eyes (rabbit eyes [1]): showed local anesthesia in the treated eyes to various extents
- abnormalities in other animals of the group (rabbits [2]): No significant abnormalities
- adverse signs in the TTX-treated eye (rabbits [2]): conjunctival congestion, hydrops (++) and lacrimation
- local anesthesia (rabbits [2]): local anesthesia to some extent
- toxic signs observed (rabbits [2]): Signs of convulsion, rigidity and death
- general examination findings (rabbits [3]): No changes of food-taking pattern, movement, respiration or alertness
- toxic signs observed (rabbits [3]): Signs of convulsion, rigidity and death

SMILES: CCN(CC)CC(=O)Nc1c(C)cccc1C [lidocaine, lidocaine hydrochloride, reference compound]
- duration of action ([4]; in vivo): over 20 minutes
- onset ([4]; in vivo): about 2 minutes
- duration of action (rabbit eyes [1]): 0.34 h
- onset (rabbit eyes [1]): 1.94 min
- magnitude of ERG b wave versus controls (rabbit eyes [5]): Neither were differences found

SMILES: CCCCN1CCCCC1C(=O)Nc1c(C)cccc1C (stereo not shown) [bupivacaine]
- residual diplopia next morning ([4]; bupivacaine, ophthalmic applications): up to 70 % of patients
- duration of action ([4]; bupivacaine, peripheral nerve block): ≤ 24 h
